From US10507233B2, “Universal N-glycan binding reagent” (New England Biolabs, Inc., priority 2014, dated 2019)

Molecular target: T1, SNAP-Fbs: human Fbs sugar binding domain, wild type, SEQ ID NO: 2, fused to SNAP-tag (fusion SEQ ID NO: 3), on beads (Homo sapiens, UniProt Q9UK22)
T1 construct: SNAP-only beads as control
T1 sequence (Q9UK22 113-296): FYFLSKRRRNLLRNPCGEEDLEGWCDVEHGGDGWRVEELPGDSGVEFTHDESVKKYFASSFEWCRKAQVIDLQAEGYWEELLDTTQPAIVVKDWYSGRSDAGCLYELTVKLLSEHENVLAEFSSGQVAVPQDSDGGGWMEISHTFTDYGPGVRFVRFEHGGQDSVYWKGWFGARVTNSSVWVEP
Assay: Binding of 2-AB labeled M3N2 to SNAP-Fbs beads versus SNAP control beads
Conditions: 50 picomoles, low salt buffer, SNAP-Fbs beads vs SNAP control beads
Procedure: SNAP-Fbs is efficiently conjugated to BG beads (SNAP Capture Pull-Down resin (New England Biolabs, Ipswich, Mass.): SNAP-Fbs protein is reacted with BG beads at 4° C. overnight in a DTT-containing buffer (4 mM DTT, 20 mM tris-HCl pH 7.5, 1 mM EDTA, 50 mM NaCl). After the conjugation reaction, SNAP-Fbs beads are washed with 40× bead volume of low salt buffer.
When PNGase F is used to trim N-glycans away from the peptides or proteins, the terminal GlcNAc residue becomes available for modification. A common modification is fluorophore labeling using 2-AB dye. The primary amino group of the dye performs a nucleophilic attack on the carbonyl carbon of the acyclic reducing terminal residue to form a partially stable Schiff's base. […] The conserved terminal GlcNAc residue is thus referred to as the “reducing end” of a glycan species. Upon 2-AB labeling, the carbohydrate ring structure is no longer capable of forming. Fifty picomoles of 2-AB labeled M3N2 in low salt buffer were incubated with SNAP-Fbs beads or SNAP control beads (SNAP Capture beads conjugated to SNAP-tag Purified Protein, New England Biolabs, Ipswich, Mass.).

In the case of `CC(=O)N[C@H]1[C@H](O[C@@H]([C@H](O)[C@H](CNc2ccccc2C(N)=O)NC(C)=O)[C@H](O)CO)O[C@H](CO)[C@@H](O[C@@H]2O[C@H](CO[C@H]3O[C@H](CO)[C@@H](O)[C@H](O)[C@@H]3O)[C@@H](O)[C@H](O[C@H]3O[C@H](CO)[C@@H](O)[C@H](O)[C@@H]3O)[C@@H]2O)[C@@H]1O` [2-AB labeled M3N2], the “binding of 2-AB labeled M3N2” value is reported as 2-AB labeling disrupts the interaction between glycan and Fbs and completely abolishes binding.
